Experimental data published in ChEMBL document CHEMBL2331139, “Discovery of BAF312 (Siponimod), a Potent and Selective S1P Receptor Modulator” (ACS Med Chem Lett, 2013).
pEC50: −log10 of the molar value. Calls of active or inactive are those of the source. The calls are words filed in the database; no cut-off is given here.

Assays:
[1] = target: T1, Sphingosine 1-phosphate receptor 3 (Homo sapiens, UniProt Q99500); assay: Agonist activity at human S1P3 receptor transfected in CHO cells at 10 uM incubated for 10 to 15 mins prior to GTPgamma35S addition measured after 120 mins by GTPgamma35S binding assay relative to S1P; type: functional, cell-based
T1 sequence (Q99500 whole entry): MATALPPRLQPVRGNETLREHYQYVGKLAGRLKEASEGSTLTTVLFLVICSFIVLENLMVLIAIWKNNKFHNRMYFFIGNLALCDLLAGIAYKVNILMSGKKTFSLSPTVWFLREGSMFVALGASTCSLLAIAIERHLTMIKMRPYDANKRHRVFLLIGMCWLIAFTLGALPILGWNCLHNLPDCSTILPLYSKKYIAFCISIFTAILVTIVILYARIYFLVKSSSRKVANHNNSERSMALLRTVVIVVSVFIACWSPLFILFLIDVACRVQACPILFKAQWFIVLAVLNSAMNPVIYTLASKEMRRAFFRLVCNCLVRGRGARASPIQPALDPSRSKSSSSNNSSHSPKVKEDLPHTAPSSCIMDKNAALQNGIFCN

[2] = target: T2, Sphingosine 1-phosphate receptor 1 (Homo sapiens, UniProt P21453); assay: Agonist activity at human S1P1 receptor transfected in CHO cells at 10 uM incubated for 10 to 15 mins prior to GTPgamma35S addition measured after 120 mins by GTPgamma35S binding assay relative to S1P; type: functional, cell-based
T2 sequence (P21453 whole entry): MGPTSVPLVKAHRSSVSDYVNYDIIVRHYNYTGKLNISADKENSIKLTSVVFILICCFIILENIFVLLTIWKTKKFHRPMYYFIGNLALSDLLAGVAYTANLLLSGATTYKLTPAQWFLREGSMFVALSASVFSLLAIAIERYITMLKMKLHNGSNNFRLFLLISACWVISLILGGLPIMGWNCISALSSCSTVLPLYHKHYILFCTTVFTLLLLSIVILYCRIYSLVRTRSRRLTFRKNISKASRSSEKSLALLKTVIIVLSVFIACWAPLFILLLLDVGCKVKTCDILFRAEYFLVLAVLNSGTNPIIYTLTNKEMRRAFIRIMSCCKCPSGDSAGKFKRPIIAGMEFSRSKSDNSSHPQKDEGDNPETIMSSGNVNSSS

[3] = target: T1, Sphingosine 1-phosphate receptor 3; assay: Agonist activity at human S1P3 receptor transfected in CHO cells incubated for 10 to 15 mins prior to GTPgamma35S addition measured after 120 mins by GTPgamma35S binding assay; type: functional, cell-based
[4] = target: T2, Sphingosine 1-phosphate receptor 1; assay: Agonist activity at human S1P1 receptor transfected in CHO cells incubated for 10 to 15 mins prior to GTPgamma35S addition measured after 120 mins by GTPgamma35S binding assay; type: functional, cell-based
[5] = system: Mus musculus; assay: Volume of distribution at steady state in po dosed mouse; type: ADME, organism-based; details: in vivo
[6] = Elimination half life in po dosed mouse; type: ADME, organism-based; details: in vivo, read-out: beta t1/2
[7] = system: Rattus norvegicus; assay: Reduction in peripheral lymphocyte count in po dosed Lewis rat after 6 hrs; type: functional
[8] = target: hERG (KCNH2) (Homo sapiens, UniProt Q12809); assay: Inhibition of human ERG channel at 25 uM
Chain of hERG (KCNH2) (Q12809 whole entry): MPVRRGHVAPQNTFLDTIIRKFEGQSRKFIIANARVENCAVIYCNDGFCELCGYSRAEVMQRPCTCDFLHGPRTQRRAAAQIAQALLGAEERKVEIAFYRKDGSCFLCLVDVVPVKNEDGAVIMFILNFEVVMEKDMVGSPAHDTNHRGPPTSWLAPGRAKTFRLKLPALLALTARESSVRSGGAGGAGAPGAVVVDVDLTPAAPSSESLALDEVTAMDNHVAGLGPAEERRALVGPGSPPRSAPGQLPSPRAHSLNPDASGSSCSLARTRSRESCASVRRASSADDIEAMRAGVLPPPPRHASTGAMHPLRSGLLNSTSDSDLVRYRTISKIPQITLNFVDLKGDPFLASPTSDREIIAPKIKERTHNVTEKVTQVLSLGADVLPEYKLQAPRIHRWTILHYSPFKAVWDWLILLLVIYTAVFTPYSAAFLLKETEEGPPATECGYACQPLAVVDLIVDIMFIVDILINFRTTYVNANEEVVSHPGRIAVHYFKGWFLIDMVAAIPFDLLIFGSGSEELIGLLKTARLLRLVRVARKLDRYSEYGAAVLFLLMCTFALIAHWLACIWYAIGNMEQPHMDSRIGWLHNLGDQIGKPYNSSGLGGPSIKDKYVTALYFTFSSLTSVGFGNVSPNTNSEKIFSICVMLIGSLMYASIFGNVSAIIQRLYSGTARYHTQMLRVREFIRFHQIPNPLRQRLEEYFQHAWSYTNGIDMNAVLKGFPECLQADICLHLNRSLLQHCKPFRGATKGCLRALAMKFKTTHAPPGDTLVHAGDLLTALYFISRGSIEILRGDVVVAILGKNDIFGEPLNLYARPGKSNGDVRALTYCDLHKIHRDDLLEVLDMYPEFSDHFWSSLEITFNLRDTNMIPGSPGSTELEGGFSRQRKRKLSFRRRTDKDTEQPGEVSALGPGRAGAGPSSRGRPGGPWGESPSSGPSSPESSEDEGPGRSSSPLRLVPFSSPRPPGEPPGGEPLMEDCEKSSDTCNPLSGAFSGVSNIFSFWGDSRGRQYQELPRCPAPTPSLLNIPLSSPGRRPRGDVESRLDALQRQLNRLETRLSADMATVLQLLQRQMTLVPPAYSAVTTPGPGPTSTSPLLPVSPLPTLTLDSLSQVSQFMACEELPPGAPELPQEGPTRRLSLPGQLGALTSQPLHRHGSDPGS

[9] = Tmax in Lewis rat at 1 mg/kg, po after 8 hrs; type: ADME, organism-based; set-up: dose 1 mg/kg, route oral; details: in vivo
[10] = system: Rattus norvegicus; assay: Reduction in peripheral lymphocyte count in Lewis rat at 1 mg/kg, po after 48 hrs; type: functional, organism-based; set-up: dose 1 mg/kg
[11] = system: Rattus norvegicus; assay: Reduction in peripheral lymphocyte count in Lewis rat at 1 mg/kg, po after 8 hrs; type: functional; set-up: scale not given: the % may be the effect or the level left
[12] = Terminal half life in rat; type: ADME, organism-based; details: in vivo, read-out: beta t1/2 (converted)
[13] = Terminal half life in monkey; type: ADME, organism-based, Macaca mulatta; details: rhesus monkey, in vivo; read-out: beta t1/2 (converted)
[14] = Volume of distribution at steady state in monkey; type: ADME, organism-based, Macaca mulatta; details: rhesus monkey, in vivo; read-out: Vdss
[15] = Volume of distribution at steady state in rat; type: ADME, organism-based; details: in vivo, read-out: Vdss
[16] = Clearance in monkey; type: ADME, organism-based, Macaca mulatta; details: rhesus monkey, in vivo
[17] = Clearance in rat; type: ADME, organism-based; details: in vivo
[18] = Oral bioavailability in monkey; type: ADME, organism-based, Macaca mulatta; details: rhesus monkey, in vivo
[19] = Oral bioavailability in rat; type: ADME, organism-based; details: in vivo
[20] = Drug absorption in rat; type: ADME, organism-based; details: in vivo, read-out: Fabs
[21] = organism: Rattus norvegicus; assay: Drug excretion in rat; type: ADME, organism-based; details: in vivo
[22] = system: Caco-2; assay: Permeability across human Caco2 cells at 0.5 to 50 uM; type: ADME, cell-based; details: caco-2, 50 µM
[23] = Plasma protein binding in monkey; type: ADME, cell-free, Macaca mulatta; details: rhesus monkey, read-out: PPB
[24] = Plasma protein binding in human; type: ADME, cell-free; details: read-out: PPB
[25] = Plasma protein binding in dog; type: ADME, cell-free, Canis lupus familiaris; details: read-out: PPB
[26] = Plasma protein binding in rat; type: ADME, cell-free; details: read-out: PPB

Row | Compound | Emax [1] [%] | Emax [2] | pEC50 [3] | pEC50 [4] | also measured
1 | C/C(=N\OCc1ccc(C2CCCCC2)c(C(F)(F)F)c1)c1ccc(CNCCC(=O)O)s1 | 79 | 104% | 5.40 | 8.66 | 
2 | C/C(=N\OCc1ccc(-c2ccccc2)c(F)c1)c1ccc(CNCCC(=O)O)cc1 |  |  |  | 7.21 | 
3 | C/C(=N\OCc1ccc(-c2ccc(C)cc2)cc1)c1ccc(CNCCC(=O)O)cc1 |  |  |  | 6.19 | 
4 | C/C(=N\OCc1ccc(-c2ccc(F)c(F)c2)c(C(F)(F)F)c1)c1ccc(CNCCC(=O)O)cc1 |  |  |  | 7.80 | 
5 | C/C(=N\OCc1ccc(-c2ccccc2)cc1F)c1ccc(CNCCC(=O)O)cc1 |  |  |  | 6.92 | 
6 | C/C(=N\OCc1ccc(C2CCCCC2)c(C(F)(F)F)c1)c1ccc(CNCCC(=O)O)c(C)c1 | 159 | 94% | 5.23 | 8.70 | 
7 | C/C(=N\OCc1ccc(-c2ccc(F)cc2)cc1)c1ccc(CNCCC(=O)O)cc1 |  |  |  | 6.68 | 
8 | C/C(=N\OCc1ccc(C2CCCCC2)c(C(F)(F)F)c1)c1ccc(CNCCC(=O)O)cc1 |  |  | 5.82 | 9.52 | 
9 | C/C(=N\OCc1ccc(C2CCCCC2)c(C(F)(F)F)c1)c1ccc(CNCCC(=O)O)c(F)c1 | 61 | 105% | 5.66 | 9.52 | 
10 | C/C(=N\OCc1ccc(C2CCCCC2)c(C(F)(F)F)c1)c1ccc(CNCCC(=O)O)o1 | 62 | 100% | 5.60 | 7.77 | 
11 | C/C(=N\OCc1ccc(-c2ccccc2)cc1)c1ccc(CNCCC(=O)O)cc1 |  |  |  | 6.52 | 
12 | C/C(=N\OCc1ccc(C2CCCCC2)c(C(F)(F)F)c1)c1ccc(CNCCC(=O)O)c(C2CC2)c1 | 63 | 98% | 5.89 | 9.40 | 
13 | C/C(=N\OCc1ccc(-c2ccccc2)cc1C(F)(F)F)c1ccc(CNCCC(=O)O)cc1 |  | inactive |  | 5.00 | 
14 | C/C(=N\OCc1ccc(-c2ccco2)c(C(F)(F)F)c1)c1ccc(CNCCC(=O)O)cc1 |  |  | 5.52 | 7.82 | 
15 | C/C(=N\OCc1ccc(-c2ccccc2C(F)(F)F)cc1)c1ccc(CNCCC(=O)O)cc1 |  |  |  | 5.77 | 
16 | C/C(=N\OCc1ccc(C2CCCCC2)c(C(F)(F)F)c1)c1ccc(CNCCC(=O)O)c(Br)c1 | 65 | 85% | 5.96 | 9.40 | 

Row | Compound | Emax [1] [%] | Emax [2] | pEC50 [3] | pEC50 [4] | also measured
17 | C/C(=N\OCc1ccc(-c2ccccc2F)c(C(F)(F)F)c1)c1ccc(CNCCC(=O)O)cc1 |  |  |  | 8.10 | 
18 | COc1ccc(-c2ccc(CO/N=C(\C)c3ccc(CNCCC(=O)O)cc3)cc2)cc1 |  |  |  | 5.82 | 
19 | COc1ccccc1-c1ccc(CO/N=C(\C)c2ccc(CNCCC(=O)O)cc2)cc1 |  |  |  | 5.85 | 
20 | C/C(=N\OCc1ccc(-c2ccc(C)cc2)c(C(F)(F)F)c1)c1ccc(CNCCC(=O)O)cc1 |  |  |  | 7.03 | 
21 | C/C(=N\OCc1ccc(C2CCCC2)c(C(F)(F)F)c1)c1ccc(CNCCC(=O)O)cc1 |  |  | 5.80 | 9.22 | 
22 | C/C(=N\OCc1ccc(-c2ccc(F)cc2)c(C(F)(F)F)c1)c1ccc(CNCCC(=O)O)cc1 |  |  |  | 7.96 | 
23 | C/C(=N\OCc1ccc(C2CCCCC2)c(C(F)(F)F)c1)c1ccc(CN2CC(C(=O)O)C2)c(C)c1 | 127 | 80% | 5.49 | 8.80 | 
24 | CCc1cc(/C(C)=N/OCc2ccc(C3CCCCC3)c(C(F)(F)F)c2)ccc1CNCCC(=O)O | 43 | 92% | 5.14 | 9.15 | 
25 | C/C(=N\OCc1ccc(-c2cccs2)c(C(F)(F)F)c1)c1ccc(CNCCC(=O)O)cc1 |  |  | 5.23 | 7.74 | 
26 | C/C(=N\OCc1ccc(-c2ccc(C(F)(F)F)cc2)cc1)c1ccc(CNCCC(=O)O)cc1 |  |  |  | 5.00 | 
27 | C/C(=N\OCc1ccc(-c2ccccc2)cc1)c1ccc(CCC(N)(CO)CO)cc1 |  |  |  |  | Vdss [5]: 36.9 L/kg; half-life [6]: > 30 h
28 | C/C(=N\OCc1ccc(-c2ccccc2)c(C(F)(F)F)c1)c1ccc(CNCCC(=O)O)cc1 |  |  |  | 8.05 | 
29 | C/C(=N\OCc1ccc(C2CCCCC2)c(C(F)(F)F)c1)c1ccc(CNCCC(=O)O)c(Cl)c1 | 50 | 106% | 5.72 | 9.22 | 
30 | C/C(=N\OCc1ccc(C2CCCCC2)c(C(F)(F)F)c1)c1ccc(CNCCC(=O)O)cn1 | 53 | 92% | 5.59 | 8.85 | 
31 | C/C(=N\OCc1ccc(C2CCCCC2)c(C(F)(F)F)c1)c1ccc(CNCCC(=O)O)nc1 | 44 | 86% | 5.37 | 8.59 | 
32 | CCc1cc(/C(C)=N/OCc2ccc(C3CCCCC3)c(C(F)(F)F)c2)ccc1CN1CC(C(=O)O)C1 [SIPONIMOD] | 55 | 91% | 5.30 |  | ED50 [7]: 0.14 mg/kg; inhibition at 25 µM [8]: < 10%; Tmax [9]: 8 h; Activity [10]: inactive; Activity [11]: 88%; half-life [12]: 6 h; half-life [13]: 19 h; Vd [14]: 2.12 L/kg; Vd [15]: 2.15 L/kg; clearance [16]: 1.63 mL/min/kg; clearance [17]: 6 mL/min/kg; bioavailability [18]: 71%; bioavailability [19]: 50%; Fa [20]: 58%; Drug excretion [21]: Not Active; permeability [22]: permeable; fraction unbound [23]: < 0.001; fraction unbound [24]: < 0.001; fraction unbound [25]: < 0.001; fraction unbound [26]: < 0.001
